According to patent US20160375042A1, “USE OF CAMPTOTHECIN DERIVATIVE IN PREPARING PHARMACEUTICAL USED FOR TREATING MULTIPLE MYELOMA” (priority 2014, published 2016):
Several values for one entry are separate records, joined by “and”; a condition that tells them apart may be missing. Identical values can stand only once.

Key:
[1] = Plasma concentration of WQ1001 (HM 910) and its metabolite CPT in rats after intravenous injection; format: in vivo; details: for HM 910 Plasma / HM 910 Plasma (ng/mL): individual rats 1-6
Description: Intravenous administration in rats: six healthy SD rats, weighing 180˜220 g, three males and three females. Fasting for 12 h before dosing, free access to water. 20 mg/kg of HM 910 was administrated by intravenous bolus injection though caudal vein of the rats, with dose-volume volume of 1.0 mL/kg. Blooding 0.25 mL from the animal through the jugular vein, anti-clotting with heparin sodium, adding 0.2% formic acid within the anticoagulant. Blooding at following time points: 5 min, 15 min, 30 min, 45 min, 1 h, 1.5 h, 2 h, 2.5 h, 3 h, 4 h before and after administration. Blood samples were placed on ice after blooding and the plasma was centrifugal separated within 30 minutes (centrifugation conditions: 8000 r/min, 6 minutes, room temperature). The plasma collected was stored at −80° C. for analysis.

[2] = tested on: S1 and S1-M1-80 (characteristic expression of ABCG2/BCRP); test: Anti-drug resistance test (MTT, resistance index); format: cell-based; details: S1-M1-80 (ABCG2/BCRP) versus S1 cells, 72 h, from IC50
Description: Logarithmic growth phase S1 and S1-M1-80 (characteristic expression of ABCG2/BCRP) were prepared as cell suspension of 2.5×10^4 cells/ml and 6×10^4 cells/ml, and were seeded in into 96-well plates with 0.19 ml/well. After incubating in cell incubator for 24 hours at 37° C., 5% CO2, sample solutions in various concentrations were added at 0.01 ml/well. Stroke-physiological saline solution is used as control well. Each treatment is conducted in 3 parallel wells. The drugs were added and incubated additional 72 h hours. And 5 mg/ml of MTT is added at 0.02 ml/well before four hours of the end the incubation. The culture liquid is removed at the end of incubation. Each well was added 0.1 ml of DMSO and OD values were measured at wavelength of 540 nm and reference wavelength of 655 nm. The experiment was repeated three times. Equation 1 is used to calculate cell growth inhibition rate (IR); and Equation 2 is used to calculate resistance index. Bliss method is used to calculate the 50% inhibitory concentration (IC50).

[3] = tested on: human multiple myeloma cells NCI-H929 xenografts; test: Tumor inhibitory effect on multiple myeloma cells NCI-H929 xenografts in nude mice; format: in vivo, BALB/c nude mouse; details: for IR By RTV % / IR By TW % / RTV (X ± SD) / TW (X ± SD, g) / Bw (X ± SD, g) end / TV (X ± SD, mm^3) End / Bw (X ± SD, g) initial / TV (X ± SD, mm^3) initial: once every 4 days, intraperitoneal; for IR By RTV % / IR By TW % / RTV (X ± SD) / TW (X ± SD, g): 11th day; for Bw (X ± SD, g) end / TV (X ± SD, mm^3) End: end (11th day after inoculation)
Description: Multiple myeloma cells were routinely passaged in vitro, inoculated in 40 6-7-week-old BALB/c nude mouse, each mouse was subcutaneously injected human multiple myeloma cells NCI-H929 at its right axillary. Weighed after two days. The mice were randomly divided into five groups, eight in each group. Each group was dosed as follows: • i. physiological saline control group • ii. Topotecan positive control group, 2 mg/kg, once every 4 days, intraperitoneal injection • iii. WQ1001, high-dose group, 35 mg/kg, once every 4 days, intraperitoneal injection • iv. WQ1001, middle dose group, 25 mg/kg, once every 4 days, intraperitoneal injectionv. v. WQ1001, low dose group, 18 mg/kg, once every 4 days, intraperitoneal injection
Body weight(BW) as well as long diameter and short diameter of tumors were measured every two days. Tumor volume was calculated according to the Equation 1. On the 11th day after inoculation, the mice were weighed, long diameter and short diameter of tumors were measured, and relative tumor volume (RTV) was calculated according to Equation 2. Mice were sacrificed by cervical dislocation and the tumor mass was stripped and weighed. Inhibition rate (IR) was calculated according to the Equation 3. RTV and tumor weight (TW) for each group were analyzed through T-test.

[4] = Water-solubility test of compounds of Formula II and Formula IV; format: physicochemical; details: the C-20 phosphite salt (Formula II) itself, read-out: Water-solubility of Comp of Formula II
[5] = SD rats, 20 mg/kg HM 910 i.v. bolus, 2.5 hr, 20 mg/kg

CC[C@@]1(O[PH](=O)[O-])C(=O)OCc2c1cc1n(c2=O)Cc2cc3ccccc3nc2-1.[Na+] [WQ1001]
HM 910 Plasma ([1]; SD rats, 20 mg/kg HM 910 i.v. bolus, 0.083 hr, 20 mg/kg): 56652 ng/mL and 31029 ng/mL and 37348 ng/mL and 56722 ng/mL and 45165 ng/mL and 21141 ng/mL | HM 910 Plasma ([1]; SD rats, 20 mg/kg HM 910 i.v. bolus, 0.25 hr, 20 mg/kg): 13690 ng/mL and 9484 ng/mL and 7271 ng/mL and 16294 ng/mL and 6761 ng/mL and 5639 ng/mL | HM 910 Plasma ([1]; SD rats, 20 mg/kg HM 910 i.v. bolus, 0.5 hr, 20 mg/kg): 2530 ng/mL and 1425 ng/mL and 1633 ng/mL and 4582 ng/mL and 1536 ng/mL and 1628 ng/mL | HM 910 Plasma ([1]; SD rats, 20 mg/kg HM 910 i.v. bolus, 0.75 hr, 20 mg/kg): 919 ng/mL and 574 ng/mL and 539 ng/mL and 1578 ng/mL and 617 ng/mL and 607 ng/mL | HM 910 Plasma ([1]; SD rats, 20 mg/kg HM 910 i.v. bolus, 1 hr, 20 mg/kg): 499 ng/mL and 259 ng/mL and 240 ng/mL (2×) and 668 ng/mL and 256 ng/mL | HM 910 Plasma ([1]; SD rats, 20 mg/kg HM 910 i.v. bolus, 1.5 hr, 20 mg/kg): 97.2 ng/mL and 78.0 ng/mL and 45.2 ng/mL and 162 ng/mL and 59.0 ng/mL and 96.4 ng/mL | HM 910 Plasma ([1]; SD rats, 20 mg/kg HM 910 i.v. bolus, 2 hr, 20 mg/kg): 18.3 ng/mL and 25.7 ng/mL and 51.5 ng/mL and 39.5 ng/mL and 20.8 ng/mL and 53.7 ng/mL | HM 910 Plasma [1, 5]: 28.2 ng/mL and 17.2 ng/mL and 18.4 ng/mL and 11.0 ng/mL | HM 910 Plasma (ng/mL) [1, 5]: BLQ | HM 910 Plasma (ng/mL) ([1]; SD rats, 20 mg/kg HM 910 i.v. bolus, 3 hr): BLQ | HM 910 Plasma (ng/mL) ([1]; SD rats, 20 mg/kg HM 910 i.v. bolus, 4 hr): BLQ | Fate of the tested drug after injection into the rats ([1]; SD rats, 20 mg/kg i.v. bolus): degraded and the releases camptothecin | concentration at 0.083 h ([1]; both sexes, Sprague-Dawley (SD), rat, plasma, iv, 20 mg/kg, 20 mg/kg HM 910 i.v. bolus, 0.083 hr, mean of rats): 41300 ng/mL | concentration at 0.25 h ([1]; both sexes, Sprague-Dawley (SD), rat, plasma, iv, 20 mg/kg, 20 mg/kg HM 910 i.v. bolus, 0.25 hr, mean of rats): 9860 ng/mL | concentration at 0.5 h ([1]; both sexes, Sprague-Dawley (SD), rat, plasma, iv, 20 mg/kg, 20 mg/kg HM 910 i.v. bolus, 0.5 hr, mean of rats): 2220 ng/mL | concentration at 0.75 h ([1]; both sexes, Sprague-Dawley (SD), rat, plasma, iv, 20 mg/kg, 20 mg/kg HM 910 i.v. bolus, 0.75 hr, mean of rats): 806 ng/mL | concentration at 1 h ([1]; both sexes, Sprague-Dawley (SD), rat, plasma, iv, 20 mg/kg, 20 mg/kg HM 910 i.v. bolus, 1 hr, mean of rats): 360 ng/mL | concentration at 1.5 h ([1]; both sexes, Sprague-Dawley (SD), rat, plasma, iv, 20 mg/kg, 20 mg/kg HM 910 i.v. bolus, 1.5 hr, mean of rats): 89.6 ng/mL | concentration at 2 h ([1]; both sexes, Sprague-Dawley (SD), rat, plasma, iv, 20 mg/kg, 20 mg/kg HM 910 i.v. bolus, 2 hr, mean of rats): 34.9 ng/mL | concentration at 2.5 h ([1]; both sexes, Sprague-Dawley (SD), rat, plasma, iv, 20 mg/kg, 20 mg/kg HM 910 i.v. bolus, 2.5 hr, mean of rats): 18.7 ng/mL | Resistance index [2]: 6 | anti-tumor effect on NCI-H929 xenografts in nude mice (in words) ([3]; 25 mg/kg): significant anti-tumor effect | IR By RTV % ([3]; HM910 l-dose 18 mg/kg): 66.5% | IR By TW % ([3]; HM910 l-dose 18 mg/kg): 72.7% | RTV (X ± SD) ([3]; HM910 l-dose 18 mg/kg): 13.5 ± 11.0 | TW (X ± SD, g) ([3]; HM910 l-dose 18 mg/kg): 0.41 ± 0.34 g | Bw (X ± SD, g) end ([3]; HM910 l-dose 18 mg/kg): 19.2 ± 0.9 g | TV (X ± SD, mm^3) End ([3]; HM910 l-dose 18 mg/kg): 653.0 ± 560.4 mm^3 | Bw (X ± SD, g) initial ([3]; HM910 l-dose 18 mg/kg): 21.0 ± 1.6 g | TV (X ± SD, mm^3) initial ([3]; HM910 l-dose 18 mg/kg): 48.6 ± 4.9 mm^3 | IR By RTV % ([3]; HM910 m-dose 25 mg/kg): 75.7% | IR By TW % ([3]; HM910 m-dose 25 mg/kg): 82.0% | RTV (X ± SD) ([3]; HM910 m-dose 25 mg/kg): 9.80 ± 11.6 | TW (X ± SD, g) ([3]; HM910 m-dose 25 mg/kg): 0.27 ± 0.35 g | Bw (X ± SD, g) end ([3]; HM910 m-dose 25 mg/kg): 18.5 ± 0.7 g | TV (X ± SD, mm^3) End ([3]; HM910 m-dose 25 mg/kg): 480.1 ± 570.6 mm^3 | Bw (X ± SD, g) initial ([3]; HM910 m-dose 25 mg/kg): 17.3 ± 0.7 g | TV (X ± SD, mm^3) initial ([3]; HM910 m-dose 25 mg/kg): 48.2 ± 7.8 mm^3 | IR By RTV % ([3]; HM910 h-dose 35 mg/kg): 86.1% | IR By TW % ([3]; HM910 h-dose 35 mg/kg): 88.2% | RTV (X ± SD) ([3]; HM910 h-dose 35 mg/kg): 5.61 ± 9.74 | TW (X ± SD, g) ([3]; HM910 h-dose 35 mg/kg): 0.18 ± 0.36 g | Bw (X ± SD, g) end ([3]; HM910 h-dose 35 mg/kg): 18.8 ± 0.6 g | TV (X ± SD, mm^3) End ([3]; HM910 h-dose 35 mg/kg): 272.3 ± 483.1 mm^3 | Bw (X ± SD, g) initial ([3]; HM910 h-dose 35 mg/kg): 17.3 ± 0.7 g | TV (X ± SD, mm^3) initial ([3]; HM910 h-dose 35 mg/kg): 46.9 ± 8.8 mm^3 | anti-tumor effect on NCI-H929 xenografts in nude mice (in words) ([3]; high dose, 35 mg/kg): significant anti-tumor effect | anti-tumor effect on NCI-H929 xenografts in nude mice (in words) ([3]; low-dose group, 18 mg/kg): significant anti-tumor effect | solubility [4]: > 10000 µg/mL
